“And” between values parts separate entries of the source, which are not always exact repeats. Identical values can stand only once.
Key:
KYSE410 cells = experiment: MTT assay, KYSE410; type: cell-based, human; conditions: for IC50: Homo sapiens, KYSE-410, MTT, 48 h, KYSE410, n = 5, read-out: IC50 48 h KYSE410
Text: (§1) The human cancer cells (H1650, H1975, KYSE70, KYSE410 and KYSE450) were purchased from the Type Culture Collection of the Chinese Academy of Sciences (Shanghai, China). The human immortalized normal esophageal epithelial cell line SHEE was donated by Dr. Enmin Li from the Laboratory of Tumor Pathology (Shantou University Medical College, Shantou, Guangdong, China). Drug-resistant cells (H1650TR, H1975OR, KYSE70TR, KYSE410TR and KYSE450TR) were induced by China-US (Henan) Hormel Cancer Institute. The cellswere cultured in RPMI-1640 complete growth medium containing 100 U/mL penicillin-streptomycin and 10% FBS. Based on the above medium formula, 100 nm/L paclitaxel was added in taxol-resistant cells, 100 nm/L gefitinib was added in gefitinib-resistant cells. The cells were incubated at 37 °C in an atmosphere containing 5% of CO2. The compounds were dissolved in DMSO to make a 50 mM stock solution and were diluted to the concentration of working solutions with complete growth medium before administration.
(§2) Cells were seeded in 96-well plates with 2,200–2,500 cells/well in100 μL. One day after seeding, test compounds with the concentration between 0 and 50 μM were added with 0.1% DMSO as control. Five multiple wells for each concentration. After 48 h, MTT was added and incubated in the plate for 1–4 h in the incubator. The absorbance at 490 nm was measured using a microplate reader (Thermo).

H1650 cells = experiment: MTT assay for cell proliferation and cytotoxicity, H1650; type: cell-based; conditions: Homo sapiens, NCI-H1650, 48 h, H1650, n = 5
Text: as §1, §2

H1975 cells = experiment: MTT assay for cell proliferation and cytotoxicity, H1975; type: cell-based, human; conditions: Homo sapiens, NCI-H1975, 48 h, MTT, 48 h, H1975, n = 5; read-out: IC50 48 h H1975
Text: as §1
as §2, with “After 48 h, MTT was added and incubated in the plate for 1–4 h in the incubator.” left out

SHEE cells = experiment: MTT assay, normal esophageal epithelial cell line SHEE; type: cell-based; conditions: Homo sapiens, 48 h, n = 5
Text: as §1, §2

KYSE450 cells = experiment: MTT assay, KYSE450; type: cell-based, human; conditions: for IC50: Homo sapiens, KYSE-450, MTT, 48 h, KYSE450, n = 5, read-out: IC50 48 h KYSE450; for absorbance 490 nm, single well / mean absorbance 490 nm (row G) / mean absorbance 490 nm minus background (row H): KYSE450
Text: as §1, §2

KYSE70 cells = experiment: MTT assay, KYSE70; type: cell-based, human; conditions: for IC50: Homo sapiens, KYSE-70, MTT, 48 h, KYSE70, n = 5
Text: as §1, §2

[1] = concentration 12.5 (unit not given)
[2] = concentration 25 (unit not given)
[3] = concentration 50 (unit not given)
[4] = concentration 100 (unit not given)

Structure (SMILES): Fc1ccc(-n2cc(-c3cccc(Nc4ncnc5cc6c(cc45)OCCOCCOCCO6)c3)nn2)cc1 [compound 3c]
- IC50 (KYSE410 cells): > 50 µM
- IC50 (H1650 cells): 9.4 ± 0.73 µM
- IC50 (H1975 cells): > 50 µM
- melting point: 129 to 132 °C
- IC50 (SHEE cells): 6.23 ± 0.37 µM
- IC50 (KYSE450 cells): 13.8 ± 1.13 µM
- IC50 (KYSE70 cells): 5.84 ± 0.36 µM

Structure (SMILES): Brc1ccccc1Cn1cc(-c2cccc(Nc3ncnc4cc5c(cc34)OCCOCCOCCO5)c2)nn1 [compound 3s]
- IC50 (KYSE410 cells): 19.2 ± 1.22 µM
- IC50 (H1650 cells): 17.1 ± 1.64 µM
- IC50 (H1975 cells): > 50 µM
- melting point: 161 to 164 °C
- IC50 (SHEE cells): 14.2 ± 0.94 µM
- IC50 (KYSE450 cells): 23.4 ± 1.13 µM
- IC50 (KYSE70 cells): 9.35 ± 0.89 µM

Structure (SMILES): Brc1ccc(-n2cc(-c3cccc(Nc4ncnc5cc6c(cc45)OCCOCCOCCO6)c3)nn2)cc1 [compound 3j]
- IC50 (KYSE410 cells): > 50 µM
- IC50 (H1650 cells): 27.6 ± 1.85 µM
- IC50 (H1975 cells): 5.02 ± 0.37 µM
- melting point: 158 to 161 °C
- IC50 (SHEE cells): > 50 µM
- IC50 (KYSE450 cells): 12.5 ± 1.22 µM
- IC50 (KYSE70 cells): 50 µM

Structure (SMILES): Fc1ccc(CCn2cc(-c3cccc(Nc4ncnc5cc6c(cc45)OCCOCCOCCO6)c3)nn2)cc1 [compound 3v]
- IC50 (KYSE410 cells): 21.6 ± 1.35 µM
- blank-corrected absorbance 490 nm relative to control (fraction) (KYSE410 cells; KYSE410, concentration 12.5): 1.2383
- inhibition (1 minus fraction of control) (KYSE410 cells; KYSE410, concentration 12.5): -0.2383
- blank-corrected absorbance 490 nm relative to control (fraction) (KYSE410 cells; KYSE410, concentration 25): 0.4202
- inhibition (1 minus fraction of control) (KYSE410 cells; KYSE410, concentration 25): 0.5798
- blank-corrected absorbance 490 nm relative to control (fraction) (KYSE410 cells; KYSE410, concentration 50): 0.1986
- inhibition (1 minus fraction of control) (KYSE410 cells; KYSE410, concentration 50): 0.8014
- blank-corrected absorbance 490 nm relative to control (fraction) (KYSE410 cells; KYSE410, concentration 100): -0.03723
- inhibition (1 minus fraction of control) (KYSE410 cells; KYSE410, concentration 100): 1.037
- IC50 (H1650 cells): 11.6 ± 0.96 µM
- IC50 (H1975 cells): 11.1 ± 0.95 µM
- melting point: 110 to 113 °C
- IC50 (SHEE cells): 8.26 ± 0.71 µM
- IC50 (KYSE450 cells): 11 ± 0.97 µM
- absorbance 490 nm, single well (KYSE450 cells; [1]): 0.3527 and 0.3885 and 0.4267 and 0.4169
- mean absorbance 490 nm (row G) (KYSE450 cells; [1]): 0.3962
- mean absorbance 490 nm minus background (row H) (KYSE450 cells; [1]): 0.3414
- absorbance 490 nm, single well (KYSE450 cells; [2]): 0.1525 and 0.1448 and 0.156 and 0.143 and 0.153
- mean absorbance 490 nm (row G) (KYSE450 cells; [2]): 0.1499
- mean absorbance 490 nm minus background (row H) (KYSE450 cells; [2]): 0.09506
- absorbance 490 nm, single well (KYSE450 cells; [3]): 0.0873 and 0.0943 and 0.1023 and 0.0955
- mean absorbance 490 nm (row G) (KYSE450 cells; [3]): 0.09485
- mean absorbance 490 nm minus background (row H) (KYSE450 cells; [3]): 0.04005
- absorbance 490 nm, single well (KYSE450 cells; [4]): 0.0657 and 0.0611 and 0.0638 and 0.0596 and 0.0609
- mean absorbance 490 nm (row G) (KYSE450 cells; [4]): 0.06222
- mean absorbance 490 nm minus background (row H) (KYSE450 cells; [4]): 0.00742
- IC50 (KYSE70 cells): 6.93 ± 0.37 µM
- blank-corrected absorbance 490 nm relative to control (fraction) (KYSE70 cells; KYSE70, concentration 12.5): 0.0977
- inhibition (1 minus fraction of control) (KYSE70 cells; KYSE70, concentration 12.5): 0.9023
- blank-corrected absorbance 490 nm relative to control (fraction) (KYSE70 cells; KYSE70, concentration 25): 0.03951
- inhibition (1 minus fraction of control) (KYSE70 cells; KYSE70, concentration 25): 0.9605
- blank-corrected absorbance 490 nm relative to control (fraction) (KYSE70 cells; KYSE70, concentration 50): 0.1249
- inhibition (1 minus fraction of control) (KYSE70 cells; KYSE70, concentration 50): 0.8751
- blank-corrected absorbance 490 nm relative to control (fraction) (KYSE70 cells; KYSE70, concentration 100): 0.0961
- inhibition (1 minus fraction of control) (KYSE70 cells; KYSE70, concentration 100): 0.9039

Structure (SMILES): Brc1ccccc1-n1cc(-c2cccc(Nc3ncnc4cc5c(cc34)OCCOCCOCCO5)c2)nn1 [compound 3k]
- IC50 (KYSE410 cells): 21.9 ± 1.39 µM
- IC50 (H1650 cells): 17.7 ± 1.21 µM
- IC50 (H1975 cells): 27.2 ± 1.67 µM
- melting point: 129 to 132 °C
- IC50 (SHEE cells): 12.5 ± 1.03 µM
- IC50 (KYSE450 cells): 6.25 ± 0.57 µM
- IC50 (KYSE70 cells): 5.05 ± 0.34 µM

Structure (SMILES): Clc1cccc(-n2cc(-c3cccc(Nc4ncnc5cc6c(cc45)OCCOCCOCCO6)c3)nn2)c1 [compound 3g]
- IC50 (KYSE410 cells): 10.9 ± 0.99 µM
- IC50 (H1650 cells): 8.72 ± 0.73 µM
- IC50 (H1975 cells): 4.75 ± 0.33 µM
- IC50 (SHEE cells): 8.01 ± 0.77 µM
- IC50 (KYSE450 cells): 4.51 ± 0.29 µM
- IC50 (KYSE70 cells): 6.13 ± 0.31 µM

— article PMC9709406 (Frontiers in Pharmacology, 2022)
